These results are taken from patent US20250302948A1, “DR5 Agonist and IAP Antagonist Combination Therapy” (Inhibrx Biosciences, Inc., priority 2022, published 2025).

One data set deals with SNU-1. The data set can be described thus: Cytotoxicity on gastric cancer cell lines, assay similar to Example 1 (Example 4). As to conditions: Homo sapiens, SNU1.
For another data set, the system named is NCI-H460. The data set can be described thus: Cytotoxicity on lung cancer cell lines, assay similar to Example 1 (Example 4). The note with it: Homo sapiens.
A further data set concerns MIA-PaCa-2. The data set can be described thus: Cytotoxicity on pancreatic cancer cell lines, assay similar to Example 1 (Example 4). As to conditions: Homo sapiens.
In a further data set the test system is SNU-C2B. The data set can be described thus: CellTiter-Glo cell viability, 48 h (Example 1). Format: cell-based. As to conditions: Homo sapiens. The source says: (§1) Test Article Preparation for INBRX-109.
(§2) Day 2—Test and Control Article Addition.
(§3) Day 4—Viability Measurements. […] Data was graphed in GraphPad Prism 7.
On the technique in general: Cellular ATP, detected with luciferase, serves as a proxy for viable cell number.

A further data set concerns LS411N. The data set can be described thus: CellTiter-Glo cell viability, 48 h (Example 1). Format: cell-based. The note with it: Homo sapiens, LS-411N.
Text: as §1, §2, §3

A further data set deals with SW620. The data set can be described thus: CellTiter-Glo cell viability, 48 h (Examples 1, 2). As to conditions: Homo sapiens, SW-620. It counts as cell-based.
Text: as §1, §2, §3

In the next data set the test system is Panc-1. The data set can be described thus: Cytotoxicity on pancreatic cancer cell lines, assay similar to Example 1 (Example 4). As to conditions: Homo sapiens.
In a further data set the test system is SW1990. The data set is described as above. As to conditions: Homo sapiens.
Another data set has as its system HCC2935. The data set can be described thus: Cytotoxicity on lung cancer cell lines, assay similar to Example 1 (Example 4). As to conditions: Homo sapiens.
A further data set deals with AsPC-1. The data set can be described thus: Cytotoxicity on pancreatic cancer cell lines, assay similar to Example 1 (Example 4). The note with it: Homo sapiens, ASPC1.
Another data set has as its system NCI-H23. The data set can be described thus: Cytotoxicity on lung cancer cell lines, assay similar to Example 1 (Example 4). The note with it: Homo sapiens.
The next data set relates to A549. Described as above. The note with it: Homo sapiens.
In the next data set the test system is T.Tn. The data set can be described thus: CellTiter-Glo cell viability, T48 (Example 3). Format: cell-based. The source says:
(§4) Day 2—Compound Treatment.
(§5) Day 4—Viability Measurements.

The test system of another data set is RPMI-2650. The data set can be described thus: CellTiter-Glo cell viability, T48 (Example 3). Format: cell-based.
Text: as §4, §5

In a further data set the test system is COLO-680N. The data set can be described thus: CellTiter-Glo cell viability, T48 (Example 3). It counts as cell-based.
Text: as §4, §5

A further data set has as its system KYSE-70. The data set can be described thus: CellTiter-Glo cell viability, T48 (Example 3). It counts as cell-based.
Text: as §4, §5

The test system of another data set is CAL-27. The data set can be described thus: CellTiter-Glo cell viability, T48 (Example 3). It counts as cell-based.
Text: as §4, §5

The subject of a further data set is KYSE-410. The data set can be described thus: CellTiter-Glo cell viability, T48 (Example 3). It counts as cell-based.
Text: as §4, §5

Another data set concerns SCC-25. The data set can be described thus: CellTiter-Glo cell viability, T48 (Example 3). It counts as cell-based.
Text: as §4, §5

The subject of the next data set is SCC-15. The data set can be described thus: CellTiter-Glo cell viability, T48 (Example 3). Format: cell-based.
Text: as §4, §5

In the next data set the test system is KYSE-150. The data set can be described thus: CellTiter-Glo cell viability, T48 (Example 3). It counts as cell-based.
Text: as §4, §5

A further data set has as its system SCC-4. The data set can be described thus: CellTiter-Glo cell viability, T48 (Example 3). Format: cell-based.
Text: as §4, §5

The test system of the next data set is SCC-9. The data set can be described thus: CellTiter-Glo cell viability, T48 (Example 3). Format: cell-based.
Text: as §4, §5

A further data set concerns OSC-19. The data set can be described thus: CellTiter-Glo cell viability, T48 (Example 3). It counts as cell-based.
Text: as §4, §5

Another data set deals with SW579. The data set can be described thus: CellTiter-Glo cell viability, T48 (Example 3). Format: cell-based.
Text: as §4, §5

A further data set deals with A253. The data set can be described thus: CellTiter-Glo cell viability, T48 (Example 3). It counts as cell-based.
Text: as §4, §5

The next data set has as its system TE-1. The data set can be described thus: CellTiter-Glo cell viability, T48 (Example 3). Format: cell-based.
Text: as §4, §5

A further data set deals with Detroit 562. The data set can be described thus: CellTiter-Glo cell viability, T48 (Example 3). It counts as cell-based.
Text: as §4, §5

For a further data set, the system named is FADU. The data set can be described thus: CellTiter-Glo cell viability, T48 (Example 3). Format: cell-based.
Text: as §4, §5

The next data set deals with KYSE-270. The data set can be described thus: CellTiter-Glo cell viability, T48 (Example 3). Format: cell-based.
Text: as §4, §5

The test system of another data set is SNU-5. The data set can be described thus: Cytotoxicity on gastric cancer cell lines, assay similar to Example 1 (Example 4). As to conditions: Homo sapiens.
Another data set concerns NCI-H2452. The data set can be described thus: Cytotoxicity on lung cancer cell lines, assay similar to Example 1 (Example 4). As to conditions: Homo sapiens.
A further data set concerns NCI-N87. The data set can be described thus: Cytotoxicity on gastric cancer cell lines, assay similar to Example 1 (Example 4). As to conditions: Homo sapiens.
Another data set deals with HT-29. The data set can be described thus: CellTiter-Glo cell viability, 48 h (Example 1). The note with it: Homo sapiens. Format: cell-based.
Text: as §1, §2, §3

Another data set concerns LOVO. The data set can be described thus: CellTiter-Glo cell viability, 48 h (Example 1). It counts as cell-based. As to conditions: Homo sapiens.
Text: as §1, §2, §3

For a further data set, the system named is LS174T. The data set can be described thus: CellTiter-Glo cell viability, 48 h (Examples 1, 2). Format: cell-based. As to conditions: Homo sapiens, LCL-161 5 uM alone.
Text: as §1, §2, §3

[1] abbreviates: Homo sapiens, Debio-1143 4.5 μM alone.
Where [2] appears, read: LCL-161 5 uM alone, read-out: % cytotoxicity.

Procedure for A549: (§6) Day 1-Cell Seeding. Monolayer cultures of each cell line were harvested for compound screening as detailed below. Culture medium was aspirated, and the cells were washed once with PBS. Accutase was added and flasks were incubated at 37° C. until cells became detached. An equal volume of complete medium was added to quench the Accutase, and the cells were then pipetted up and down several times to generate a homogenous single cell suspension. The density and viability of cells was determined by Trypan Blue using a TC20 Automated Cell Counter. Experimental cells were resuspended to a concentration of 0.17×10^6/mL in EMEM/10% FBS/Anti-Anti media (complete EMEM) and seeded in the inner wells of 384-well luminescence plates at 15 μL/well (2,500/well final). Each cell line was plated in duplicate on separate plates. […]
(§7) Day 4—Viability Measurements. […] Any visible bubbles were removed with 100% ethanol vapor, then luminescence (RLU) was read on the Spectra Max M5e plate reader, using the 384-well opaque plate setting and SoftMaxPro v5.4 software with an integration time of 50 milliseconds. To determine the effect of test articles on cell viability, raw RLU values were exported to Excel and percent survival was calculated as a percentage of vehicle control (0.2% DMSO in EMEM), where the vehicle control is set at 100%. […]
Procedure for AsPC-1: as §6
(§8) Day 4—Viability Measurements. […] Any visible bubbles were removed with 100% ethanol vapor, then luminescence (RLU) was read on the Spectra Max M5e plate reader, using the 384-well opaque plate setting and SoftMaxPro v5.4 software with an integration time of 50 milliseconds. To determine the effect of test articles on cell viability, raw RLU values were exported to Excel and percent survival was calculated as a percentage of vehicle control (0.2% DMSO in EMEM), where the vehicle control is set at 100%.
Procedure for HCC2935: as §6, §7
Procedure for MIA-PaCa-2: as §6, §7
Procedure for NCI-H23: as §6, §7
Procedure for NCI-H2452: as §6, §7
Procedure for NCI-H460: as §6, §7
Procedure for NCI-N87: as §6, §8
Procedure for Panc-1: as §6, §8
Procedure for SNU-1: as §6, §8
Procedure for SNU-5: as §6, §8
Procedure for SW1990: as §6, §7

Turning to `CN[C@@H](C)C(=O)N[C@H]1CN(C(=O)CC(C)C)CC[C@H]2CC[C@@H](C(=O)NC(c3ccccc3)c3ccccc3)N2C1=O` [Debio-1143, xevinapant], the cytotoxicity at 2 µM with SNU-1 was 6.83%; in the data set with NCI-H460, 3.43%; with MIA-PaCa-2, 7.37%; in the data set with Panc-1, 13.6%; with SW1990, 2.23%; with HCC2935, 4.95%. For the same molecule, the cytotoxicity at 2 µM amounted to 2.71% in the data set on AsPC-1; 10.8% in the data set with NCI-H23; 9.61% with A549; 31.5% in the data set with SNU-5; 2.82% in the data set on NCI-H2452; 7.01% in the data set with NCI-N87. The cytotoxicity at 4.5 µM turned out to be 44.8% in the data set on SNU-C2B; 0.4% in the data set with LS411N; 5.5% in the data set on SW620; 4.4% in the data set on T.Tn (Debio-1143 4.5 μM alone); 5.6% with RPMI-2650 (setting [1]); 3.4% with COLO-680N (setting [1]). The cytotoxicity at 4.5 µM was -6.7% in the data set on KYSE-70 (setting [1]); 7.2% in the data set on CAL-27 (setting [1]); -3.3% in the data set on KYSE-410 (setting [1]); 0.6% in the data set on SCC-25 (setting [1]); 0.9% with SCC-15 (setting [1]); -13.7% in the data set with KYSE-150 (setting [1]). The cytotoxicity at 4.5 µM with SCC-4 (setting [1]) was 0.7%; in the data set on SCC-9 (setting [1]) it was 2.3%; in the data set with OSC-19 (OSC19, Debio-1143 4.5 μM alone), -7.1%; with SW579 (Debio-1143 4.5 μM alone), 7.7%; in the data set with A253 (setting [1]), 3.2%; in the data set with TE-1 (setting [1]), -6%. In addition, the values for the cytotoxicity at 4.5 µM in the data set on Detroit 562 (setting [1]), in the data set on FADU (setting [1]) and with KYSE-270 (setting [1]) were 9%, -3.7% and 8.2%, respectively.

For `C[C@@H]1CN(CC(=O)N2CC(C)(C)c3nc(CO)c(Cc4ccc(F)cc4)cc32)[C@@H](CN2CCOC[C@H]2C)CN1` [ASTX660, tolinapant], the cytotoxicity at 0.9 µM in the data set on SNU-C2B (ASTX660 900 nM alone) was determined as 31.1%; in the data set on LS411N (LS411N, ASTX660 900 nM alone), 5.9%; with HT-29 (ASTX660 900 nM alone), 0.3%; in the data set on LOVO (ASTX660 900 nM alone) it was 6.5%; in the data set with SW620 (SW620, ASTX660 900 nM alone) it was 2.6%.

As to `CN[C@@H](C)C(=O)N[C@H](C(=O)N1CCC[C@H]1C(=O)N[C@H]1c2ccccc2C[C@H]1OCC#CC#CCO[C@@H]1Cc2ccccc2[C@@H]1NC(=O)[C@@H]1CCCN1C(=O)[C@@H](NC(=O)[C@H](C)NC)C1CCCCC1)C1CCCCC1` [AZD5582], the cytotoxicity at 0.45 µM was found to be 75.3% in the data set with SNU-C2B (AZD5582 450 nM alone); 12.7% in the data set on LS411N (LS411N, AZD5582 450 nM alone); 23.4% in the data set on HT-29 (AZD5582 450 nM alone); 28.2% in the data set on LOVO (AZD5582 450 nM alone); 4.1% in the data set on SW620 (SW620, AZD5582 450 nM alone).

As to `CN[C@@H](C)C(=O)N[C@H](C(=O)N1CCC[C@H]1c1nc(C(=O)c2ccc(F)cc2)cs1)C1CCCCC1` [LCL-161], the cytotoxicity at 5 µM in the data set with SNU-C2B (setting [2]) came to 72.9%; in the data set with LS411N (LS411N, LCL-161 5 uM alone, read-out: % cytotoxicity), 10.5%; in the data set with HT-29 (setting [2]), 6.2%; in the data set on SW620 (SW620, LCL-161 5 uM alone, read-out: % cytotoxicity), 4.7%; in the data set with LS174T, 9%.

B1: INBRX-109: DR5-binding polypeptide consisting of SEQ ID NO: 7, or SEQ ID NO: 7 lacking the terminal lysine; tetravalent DR5 agonist (protein)
chain: EVQLLESGGGEVQPGGSLRLSCAASGLTFPNYGMGWFRQAPGKEREFVSAIYWSGGTVYYAESVKGRFTISRDNAKNTLYLQMSSLRAEDTAVYYCAVTIRGAATQTWKYDYWGQGTLVTVKPGGSGGSEVQLLESGGGEVQPGGSLRLSCAASGLTFPNYGMGWFRQAPGKEREFVSAIYWSGGTVYYAESVKGRFTISRDNAKNTLYLQMSSLRAEDTAVYYCAVTIRGAATQTWKYDYWGQGTLVTVKPGGGGDKTHTCPPCPAPGGPSVFLFPPKPKDTLMISRTPEVTCVVVDVSHEDPEVKFNWYVDGVEVHNAKTKPREEQYNSTYRVVSVLTVLHQDWLNGKEYKCKVSNKALPAPIEKTISKAKGQPREPQVYTLPPSRDELTKNQVSLTCLVKGFYPSDIAVEWESNGQPENNYKTTPPVLDSDGSFFLYSKLTVDKSRWQQGNVFSCSVMHEALHNHYTQKSLSLSPGK
modifications: Synthetic: INBRX-109
notes: tetravalent DR5 agonist
For B1, the “% cytotoxicity” value was 42.9% in the data set with T.Tn (INBRX-109 1 nM alone); 2.9% with RPMI-2650 (INBRX-109 1 nM alone); 9.6% in the data set with COLO-680N (INBRX-109 1 nM alone); 22.3% in the data set with KYSE-70 (INBRX-109 1 nM alone); 13.7% in the data set on CAL-27 (INBRX-109 1 nM alone); 2.6% in the data set with KYSE-410 (INBRX-109 1 nM alone). Further, the “% cytotoxicity” value with SCC-25 (INBRX-109 1 nM alone) is on record as 7.9%; with SCC-15 (INBRX-109 1 nM alone), 7.3%; in the data set on KYSE-150 (INBRX-109 1 nM alone), −0.3%; with SCC-4 (INBRX-109 1 nM alone), 8.5%; in the data set on SCC-9 (INBRX-109 1 nM alone), 19.4%; with OSC-19 (INBRX-109 1 nM alone), 100.9%. Besides, the “% cytotoxicity” value in the data set with SW579 (INBRX-109 1 nM alone) turned out to be 101.7%; with A253 (INBRX-109 1 nM alone), 50.9%; in the data set on TE-1 (INBRX-109 1 nM alone), 38.4%; in the data set with Detroit 562 (INBRX-109 1 nM alone), 42.9%; in the data set on FADU (INBRX-109 1 nM alone), 6.1%; in the data set with KYSE-270 (INBRX-109 1 nM alone), 7.3%.
